Measurements: PubChem BioAssay (NCI)
“And” between values parts separate entries of the source, which are not always exact repeats. Equal values may be shown once.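 Test compounds were applied to cells in 96-well plates for 48 hours at 5 doses. The concentration for 50% growth inhibition is given as GI50. TGI marks complete inhibition of growth.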

Columns and labels:
Assay in all cases: DTP human tumour cell line panel, 48 h
NCI-H226 lung = test system: NCI-H226 lung
HOP-62 NSCLC = test system: HOP-62 NSCLC
SK-MEL-2 melanoma = test system: SK-MEL-2 melanoma
UO-31 renal = test system: UO-31 renal
DU-145 prostate = test system: DU-145 prostate
MDA-MB-435 = test system: MDA-MB-435
786-0 renal = test system: 786-0 renal
RPMI-8226 leukemia = test system: RPMI-8226 leukemia
SN12C renal = test system: SN12C renal
SNB-75 CNS = test system: SNB-75 CNS

Structure (SMILES) | GI50 (NCI-H226 lung) | TGI (NCI-H226 lung) | GI50 (HOP-62 NSCLC) | TGI (HOP-62 NSCLC) | GI50 (SK-MEL-2 melanoma) | TGI (SK-MEL-2 melanoma) | GI50 (UO-31 renal) | TGI (UO-31 renal) | GI50 (DU-145 prostate) | TGI (DU-145 prostate) | GI50 (MDA-MB-435) | TGI (MDA-MB-435) | GI50 (786-0 renal) | TGI (786-0 renal) | GI50 (RPMI-8226 leukemia) | TGI (RPMI-8226 leukemia) | GI50 (SN12C renal) | TGI (SN12C renal) | GI50 (SNB-75 CNS) | TGI (SNB-75 CNS)
CCN(CC)Cc1cc(Nc2nc(NC3CCC(N(C)C)CC3)c3ccccc3n2)ccc1OC (stereo unspecified) | 3.94 µM | 16.8 µM | 8.63 µM | 20.9 µM | 3.09 µM | 7.52 µM | 12.2 µM | 27.2 µM | 10.5 µM | 22.2 µM | 3.05 µM | 11.9 µM | 6.67 µM | 19.3 µM | 2.34 µM | 6.63 µM | 11.3 µM | 24.5 µM | 2.17 µM | 17.5 µM
CSC1=Nc2c(c(C)c(C)n2COC(CO)CO)C2=NC(=O)CN12 | > 100 µM | > 100 µM | > 100 µM | > 100 µM | > 100 µM | > 100 µM | > 100 µM | > 100 µM | > 100 µM | > 100 µM | > 100 µM | > 100 µM | > 100 µM | > 100 µM | > 100 µM | > 100 µM | > 100 µM | > 100 µM | 63 µM | > 100 µM
CC(C)(CO)CNC(=O)c1ccc2[nH]c(O)c(N=Nc3ccc(S(N)(=O)=O)cc3)c2c1 | > 25 µM | > 25 µM | > 25 µM | > 25 µM | > 25 µM | > 25 µM | > 25 µM | > 25 µM | > 25 µM | > 25 µM | > 25 µM | > 25 µM | > 25 µM | > 25 µM | > 25 µM | > 25 µM | > 25 µM | > 25 µM | > 25 µM | > 25 µM
Cc1cc(O)c2c(c1)C(=O)C=CC2=O |  | 42.4 µM and 39.2 µM |  | 44.7 µM and 34.2 µM |  | 36.8 µM and 44.3 µM |  | 11.4 µM and 16.2 µM |  | 30.8 µM and 46.7 µM | 4.8 µM and 1.93 µM | 11.7 µM and 4.25 µM | 5.8 µM and 2.59 µM | 12.9 µM and > 21.6 µM | 3.29 µM and 0.39 µM | 17.9 µM and 3.44 µM |  | 21.9 µM and 28.6 µM |  | 34 µM and 30 µM
CC1(C)N=C(N)N=C(N)N1c1ccc(CCC(=O)Nc2ccc(S(=O)(=O)F)cc2)cc1 | 7.35 µM | > 100 µM | 8.62 µM | > 100 µM | 26.4 µM | > 100 µM | 34.1 µM | > 100 µM | 0.871 µM | > 100 µM | 0.461 µM | > 100 µM | 0.529 µM | > 100 µM | 1.22 µM | > 100 µM | 1.59 µM | > 100 µM | 2.42 µM | > 100 µM
N#CC1c2ccccc2C=CN1C(=O)CCCl (stereo unspecified) | 17.6 µM | 54.9 µM | 19.8 µM | 40.6 µM | 13.6 µM | 28 µM | 2.32 µM | 7.2 µM | 9.04 µM | 21.9 µM | 12.4 µM | 27.1 µM | 14 µM | 28 µM | 2.66 µM | 9.25 µM | 15.6 µM | 34.9 µM | 10.6 µM | 25.3 µM
CNC(=O)c1ncccc1Nc1nc(Nc2cc3c(cc2OC)CCCN3C(=O)CN(C)C)nc2[nH]ccc12 | 1.91 µM | 5.78 µM | 1.17 µM | 4.73 µM | 0.877 µM | 3.89 µM | 2.71 µM | 6.45 µM | 0.753 µM | 3.02 µM | 0.244 µM | 1.78 µM | 3.23 µM | 7.02 µM | 0.842 µM | 3.89 µM | 3.36 µM | 7.37 µM | 3.03 µM | 6.43 µM
CCN1C(=S)N(CC)C2C1NC(=S)N2/N=C/C=C/c1ccccc1OC (stereo unspecified) | 0.903 µM | > 39.3 µM | 0.453 µM | > 100 µM | 0.615 µM | 56.7 µM | 0.621 µM | > 93 µM | 0.354 µM | 25.3 µM | 0.0368 µM | 0.177 µM | 0.67 µM | > 52.3 µM | 0.377 µM | 7.08 µM | 0.67 µM | 24.8 µM | 0.0935 µM | 0.606 µM
CC(=O)ON1CCCC(P(=O)(OCOC(=O)C(C)(C)C)OCOC(=O)C(C)(C)C)C1=O (stereo unspecified) | 0.949 µM | 7.2 µM | 0.923 µM | 7.53 µM | 1.58 µM | 6.91 µM | 0.337 µM | 2.68 µM | 1.47 µM | 17.4 µM | 2.02 µM | 15 µM | 0.331 µM | > 23.4 µM | 0.407 µM | 1.89 µM | 0.314 µM | 2.38 µM | 3.31 µM | 18.6 µM
CC1=C(C(=O)Nc2ccccc2)C(c2ccc(N(C)C)cc2)C(C(=O)Nc2ccccc2)=C(C)N1 |  | > 100 µM |  | 24.2 µM |  | > 100 µM |  | 65.4 µM |  | > 91.7 µM |  | > 26.7 µM |  | > 100 µM |  | 72.9 µM |  | > 100 µM |  | > 100 µM
Nc1nc2c(c3cnccc13)C(c1ccc(Cl)c(Cl)c1)Cc1cnccc1-2 (stereo unspecified) | 1.23 µM | 3.94 µM | 0.583 µM | 4.99 µM | 0.401 µM | 1.86 µM | 1.54 µM | 6.72 µM | 0.615 µM | 11.2 µM | 0.241 µM | 0.646 µM | 0.565 µM | 3.9 µM | 0.788 µM | 12.9 µM | 1.18 µM | 6.68 µM | 0.368 µM | 12.1 µM
COc1ccc(OC)c(NCC(=O)n2nc(/C=C\c3ccc(O)c(OC)c3)cc2/C=C\c2ccc(O)c(OC)c2)c1 | 3.16 µM | 16.1 µM | 3.03 µM | 13 µM | 2.3 µM | 7.04 µM | 1.8 µM | 13.6 µM | 3.23 µM | 12.7 µM | 1.5 µM | 9.6 µM | 2.1 µM | 7.97 µM | 0.702 µM | 3.54 µM | 2.52 µM | > 100 µM | 2.2 µM | 9.75 µM
O=C1/C(=C\c2ccccc2)CN(C(=O)CCN2CCCCC2)C/C1=C/c1ccccc1 |  | 16.5 µM |  | 25.7 µM |  | 4.44 µM |  | 4.56 µM |  | 17.9 µM |  | 6.37 µM |  | 4.7 µM |  | 0.244 µM |  | 2.48 µM |  | 6.79 µM
O=C1/C(=C/c2ccc(Cl)c(Cl)c2)CN(C(=O)CCN2CCC(=NO)CC2)C/C1=C\c1ccc(Cl)c(Cl)c1 | 1.26 µM | 2.53 µM | 1.26 µM | 3.11 µM | 2.05 µM | 4.3 µM | 0.654 µM | 1.34 µM | 1.21 µM | 2.73 µM | 0.827 µM | 2.12 µM | 0.609 µM | 1.45 µM | 0.253 µM | 0.84 µM | 0.597 µM | 1.73 µM | 1.38 µM | 3.17 µM
Cc1nn(-c2ccc(Cl)cc2)c2ncnc(N/N=C/c3ccccc3O)c12 | 3.86 µM and 2.55 µM | 40.7 µM and > 29.5 µM | 0.538 µM and 0.322 µM | 17.1 µM and 9.11 µM | 1.24 µM and 1.59 µM | 37.2 µM and > 100 µM | 0.331 µM and 0.251 µM | 3.01 µM and 3.35 µM | 0.488 µM and 0.472 µM | 16.4 µM and > 100 µM | 1.1 µM and 0.571 µM | > 100 µM | 0.768 µM and 0.509 µM | 7.55 µM and 5.84 µM | 0.699 µM and 0.714 µM | > 100 µM | 0.804 µM and 0.473 µM | > 91.7 µM | 4.03 µM and 0.501 µM | 37.9 µM and 4.49 µM
CCn1cc(C(=O)O)c(=O)c2cc(F)c(N3CCN(S(=O)(=O)c4cccc5ccccc45)CC3)cc21 | 3.71 µM | > 100 µM | 4.6 µM | 39.2 µM | 3.55 µM | 8.72 µM | 2.21 µM | 8.95 µM | 3.97 µM | > 100 µM | 3.13 µM | 14.5 µM | 4.5 µM | 20.9 µM | 2.79 µM | 9.73 µM | 2.59 µM | > 100 µM | 1.89 µM | 8.49 µM
OC1(c2ccc(Cl)c(C(F)(F)F)c2)CCN(CCCC(c2ccc(F)cc2)c2ccc(F)cc2)CC1 | 0.857 µM | 1.81 µM | 0.945 µM | 1.7 µM | 0.955 µM | 1.76 µM | 0.714 µM | 2.72 µM | 0.897 µM | 1.66 µM | 0.819 µM | 1.53 µM | 0.832 µM | 1.52 µM | 1.1 µM | 2.67 µM | 0.831 µM | 1.54 µM | 0.713 µM | 1.43 µM
COc1ccc2c(c1)c(-c1nc(-c3c[nH]c4ncccc34)cs1)cn2CCCN1CCOCC1 | 3.1 µM | 15.9 µM | 2.24 µM | 7.18 µM | 1.88 µM | 3.77 µM | 1.37 µM | 3.67 µM | 3.15 µM | 11 µM | 1.75 µM | 3.37 µM | 1.74 µM | 3.44 µM | 1.92 µM | 4.86 µM | 3.16 µM | 15.6 µM | 1.27 µM | 3.4 µM
COC1N(C2CC(O)C(CO)O2)C(=O)NC(=O)C1(F)Br (stereo unspecified) | > 88.3 µM | > 100 µM | 8.35 µM | 50 µM and > 66.5 µM | > 50 µM | > 100 µM | > 50 µM | > 100 µM |  | > 100 µM |  | > 100 µM | 31.9 µM | 50 µM and > 100 µM | 34.1 µM | 50 µM and > 100 µM | 15.6 µM | 50 µM and > 100 µM | 7.44 µM | 50 µM and 81.6 µM
N#Cc1nc2c(S(=O)(=O)c3ccc(Cl)cc3)c(N)n(Nc3cccc(Cl)c3)c2nc1C#N | 0.106 µM | 0.322 µM and 0.302 µM | 0.109 µM |  | 0.105 µM and 0.0126 µM | 0.387 µM and 0.0857 µM | 0.333 µM | > 100 µM |  | > 100 µM | 0.0497 µM | 0.379 µM and 0.067 µM | 0.0389 µM |  | 0.00251 µM | 0.019 µM and 0.0668 µM | 0.033 µM |  | 0.0115 µM | 0.059 µM
CN[C@@H](C)C(=O)N[C@H]1CN(S(=O)(=O)c2cccc(S(=O)(=O)N3CC[C@H]4CC[C@@H](C(=O)NC(c5ccccc5)c5ccccc5)N4C(=O)[C@@H](NC(=O)[C@H](C)NC)C3)c2)CC[C@H]2CC[C@@H](C(=O)NC(c3ccccc3)c3ccccc3)N2C1=O | 28.9 µM | > 100 µM | 5.14 µM | > 100 µM | < 0.0223 µM | 10.9 µM | > 73 µM | > 100 µM | 15.1 µM | 28.3 µM | 1.89 µM | 21.6 µM | 20 µM | 43.8 µM | 3.92 µM | 99.2 µM | 16.6 µM | 36 µM |  | 0.721 µM
